Six compounds from patent US5314914A, “Methods and compositions for combatting herpes viruses” (BioMega/Boehringer Ingelheim Research Inc., priority 1988, dated 1994) can be followed below.

As a reminder, the IC50 is the point on the concentration scale where inhibition reaches its midpoint.

The structures appear in SMILES notation.

The target in experiment [1] is HSV-1 ribonucleotide reductase (Human alphaherpesvirus 1 strain 17, UniProt P08543+P10224). The experiment can be described thus: HSV-1 ribonucleotide reductase inhibition (reduction of CDP). The experiment is classed as biochemical, herpes simplex virus type 1 (strain F). To be noted: for selective inhibition of the viral (HSV-1) ribonucleotide reductase over the cellular ribonucleotide reductase: HSV-1 versus hamster 96-V-2(600) ribonucleotide reductase.

For experiment [2], the target named is T1, hamster 96-V-2(600) ribonucleotide reductase (Cricetulus griseus, UniProt G3I2K8+G3I3B7).
T1 construct: obtained from an overproducing strain of a Chinese hamster lung cell line; endogenous in cells; host or cells: overproducing strain 96-V-2(600) of a Chinese hamster lung cell line; partially purified
The experiment can be described thus: Hamster 96-V-2(600) ribonucleotide reductase inhibition (reduction of CDP). Format: biochemical, Chinese hamster. Particulars: partially purified enzyme 40 μg, in the presence of adenosine triphosphate (4 mM) and magnesium chloride (11.5 mM). The protocol: Hamster 96-V-2(600) ribonucleotide reductase (partially purified) was obtained from an overproducing strain of a Chinese hamster lung cell line as described by W. H. Lewis and P. R. Srinivasan, Mol. Cell Biol., 3, 1053 (1983).
Samples of the HSV-1 ribonucleotide reductase (65 μg with a specific activity of 26 units per mg) were mixed with increasing concentrations of the test compound, i.e. the naphthalene noted in the title of this example, in a series of tubes. Ribonucleotide reductase activity was assayed by monitoring the reduction of cytidine diphosphate (CDP) as described by Cohen et al., supra. The standard reaction mixture, in a final volume of 60 μl, contained: 50 mM, N-2-hydroxyethylpiperazine-N'-2-ethanesulfonic acid (pH 7.8); 4 mM NaF, 30 mM DL-dithiothreitol (DTT); 1 mM bacitracin, 54 μM CDP and 0.25 μCi of [^3 H]CDP. After 30 minutes of incubation at 37° C., the reaction was stopped by immersing the tube in boiling water for 4 minutes. The precipitate was removed by centrifugation. Nucleotides in the supernatant were converted to nucleosides by enzymatic hydrolysis. The deoxyribonucleosides were subsequently separated from the ribonucleosides by ascending polyethyleneimine-celulose chromatography. […] The results, shown in FIGURE 1, are expressed as a percentage of the activity obtained in the controls.

Sequence of HSV-1 ribonucleotide reductase (P08543 whole entry): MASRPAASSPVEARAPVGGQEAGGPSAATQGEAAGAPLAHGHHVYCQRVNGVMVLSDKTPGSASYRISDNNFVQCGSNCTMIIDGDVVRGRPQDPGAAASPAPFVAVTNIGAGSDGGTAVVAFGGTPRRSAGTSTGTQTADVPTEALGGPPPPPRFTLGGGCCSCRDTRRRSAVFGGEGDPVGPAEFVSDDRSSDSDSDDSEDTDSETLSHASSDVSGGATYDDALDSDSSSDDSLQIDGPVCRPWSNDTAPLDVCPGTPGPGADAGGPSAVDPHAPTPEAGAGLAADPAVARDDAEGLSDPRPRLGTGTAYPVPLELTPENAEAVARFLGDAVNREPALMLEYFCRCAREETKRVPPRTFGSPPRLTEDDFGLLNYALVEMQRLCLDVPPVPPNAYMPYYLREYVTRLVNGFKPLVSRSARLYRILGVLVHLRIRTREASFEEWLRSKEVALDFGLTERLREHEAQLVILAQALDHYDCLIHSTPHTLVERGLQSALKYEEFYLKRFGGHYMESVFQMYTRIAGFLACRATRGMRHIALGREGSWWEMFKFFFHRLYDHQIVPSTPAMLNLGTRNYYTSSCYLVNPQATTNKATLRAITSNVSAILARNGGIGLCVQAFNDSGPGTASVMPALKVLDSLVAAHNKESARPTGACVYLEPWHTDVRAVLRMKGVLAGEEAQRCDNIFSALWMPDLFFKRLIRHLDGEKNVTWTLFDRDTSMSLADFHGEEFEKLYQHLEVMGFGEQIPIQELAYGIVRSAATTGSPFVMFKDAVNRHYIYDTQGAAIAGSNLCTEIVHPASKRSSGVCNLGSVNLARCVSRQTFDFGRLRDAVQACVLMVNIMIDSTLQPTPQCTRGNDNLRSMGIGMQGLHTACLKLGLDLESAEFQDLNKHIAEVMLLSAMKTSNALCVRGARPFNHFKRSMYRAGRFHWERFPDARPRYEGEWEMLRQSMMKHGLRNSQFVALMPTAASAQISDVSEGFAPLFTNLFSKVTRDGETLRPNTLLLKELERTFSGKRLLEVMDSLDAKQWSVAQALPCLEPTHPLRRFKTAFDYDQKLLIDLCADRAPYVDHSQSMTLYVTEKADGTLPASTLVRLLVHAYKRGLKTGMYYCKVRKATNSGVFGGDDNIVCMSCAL
Sequence of HSV-1 ribonucleotide reductase (P10224 whole entry): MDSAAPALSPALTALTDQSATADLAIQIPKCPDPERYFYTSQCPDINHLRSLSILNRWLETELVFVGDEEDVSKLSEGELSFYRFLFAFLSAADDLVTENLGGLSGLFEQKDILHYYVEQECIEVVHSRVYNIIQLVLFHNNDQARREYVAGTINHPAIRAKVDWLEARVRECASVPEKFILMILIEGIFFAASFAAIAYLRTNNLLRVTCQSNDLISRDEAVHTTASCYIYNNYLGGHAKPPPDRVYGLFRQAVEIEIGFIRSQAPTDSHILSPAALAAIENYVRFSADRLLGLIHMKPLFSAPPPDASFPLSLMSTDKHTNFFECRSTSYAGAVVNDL
T1 sequence (G3I2K8 entry or part of it): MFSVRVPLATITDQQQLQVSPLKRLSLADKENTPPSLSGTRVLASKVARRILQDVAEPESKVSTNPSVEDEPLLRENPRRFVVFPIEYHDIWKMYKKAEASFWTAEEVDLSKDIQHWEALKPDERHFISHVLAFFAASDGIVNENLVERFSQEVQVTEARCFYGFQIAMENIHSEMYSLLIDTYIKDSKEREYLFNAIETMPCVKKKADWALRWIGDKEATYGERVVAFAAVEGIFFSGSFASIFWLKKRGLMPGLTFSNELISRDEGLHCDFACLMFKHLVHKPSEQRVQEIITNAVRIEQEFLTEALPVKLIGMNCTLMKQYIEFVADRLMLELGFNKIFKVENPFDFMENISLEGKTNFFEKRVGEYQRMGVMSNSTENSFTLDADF
T1 sequence (G3I3B7 entry or part of it): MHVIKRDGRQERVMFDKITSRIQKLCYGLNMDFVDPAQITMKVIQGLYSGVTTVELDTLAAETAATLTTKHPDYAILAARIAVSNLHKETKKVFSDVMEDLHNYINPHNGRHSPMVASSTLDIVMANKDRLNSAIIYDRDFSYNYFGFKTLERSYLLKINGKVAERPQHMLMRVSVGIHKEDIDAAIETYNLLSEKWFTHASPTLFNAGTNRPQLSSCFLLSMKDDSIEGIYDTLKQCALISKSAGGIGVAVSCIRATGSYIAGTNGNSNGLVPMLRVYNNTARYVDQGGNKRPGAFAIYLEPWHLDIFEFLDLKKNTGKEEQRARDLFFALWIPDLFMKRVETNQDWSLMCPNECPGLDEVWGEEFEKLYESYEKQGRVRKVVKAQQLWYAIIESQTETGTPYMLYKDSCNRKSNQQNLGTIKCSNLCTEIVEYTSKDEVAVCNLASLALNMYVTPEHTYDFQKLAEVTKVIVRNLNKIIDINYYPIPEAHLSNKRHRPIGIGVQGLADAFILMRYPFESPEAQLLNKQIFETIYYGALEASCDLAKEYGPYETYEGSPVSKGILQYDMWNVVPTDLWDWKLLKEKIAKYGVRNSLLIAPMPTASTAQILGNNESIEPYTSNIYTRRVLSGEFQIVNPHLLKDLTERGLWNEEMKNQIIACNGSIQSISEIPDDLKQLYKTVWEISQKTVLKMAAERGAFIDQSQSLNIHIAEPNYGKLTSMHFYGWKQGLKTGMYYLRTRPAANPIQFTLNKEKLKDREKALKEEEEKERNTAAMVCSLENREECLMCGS

For the compound `COC1=C(OC)C(=O)c2cc(OC)ccc2C1=O` [2,3,6-trimethoxy-1,4-naphthalenedione], the “selective inhibition of the viral (HSV-1) ribonucleotide reductase over the cellular ribonucleotide reductase” value in experiment [1] was “selective inhibition”.

With `COC1=C(OC)C(=O)c2ccccc2C1=O` [2,3-dimethoxy-1,4-naphthalenedione], in experiment [1], the “selective inhibition of the viral (HSV-1) ribonucleotide reductase over the cellular ribonucleotide reductase” value is “selective inhibition”.

For `COC1=C(OC)C(=O)c2cc(Cl)ccc2C1=O` [6-Chloro-2,3-dimethoxy-1,4-naphthalenedione], the “selective inhibition of the viral (HSV-1) ribonucleotide reductase over the cellular ribonucleotide reductase” value in experiment [1] is reported as “selective inhibition”. The “inhibitory effect of increasing concentrations on HSV-1 ribonucleotide reductase activity (FIG. 1, percentage of control activity)” value in experiment [1] (increasing concentrations of the test compound) is “progressively greater inhibitory effect”. In addition, the IC50 in experiment [2] is greater than 250 µM.

As for `CCOC1=C(OCC)C(=O)c2cc(Cl)ccc2C1=O` [6-chloro-2,3-diethoxy-1,4-naphthalenedione], the “selective inhibition of the viral (HSV-1) ribonucleotide reductase over the cellular ribonucleotide reductase” value in experiment [1] was “selective inhibition”.

For the compound `CCCOC1=C(OCCC)C(=O)c2cc(Cl)ccc2C1=O` [6-chloro-2,3-dipropoxy-1,4-naphthalenedione], the “selective inhibition of the viral (HSV-1) ribonucleotide reductase over the cellular ribonucleotide reductase” value in experiment [1] is given as “selective inhibition”.

With `COC1=C(OC)C(=O)c2cc(C#N)ccc2C1=O` [6-cyano-2,3-dimethoxy-1,4-naphthalenedione], the “selective inhibition of the viral (HSV-1) ribonucleotide reductase over the cellular ribonucleotide reductase” value in experiment [1] is given as “selective inhibition”.
